# Reference: patent US11179450B2, “Long chain antigen containing interepitope sequence that promotes antigen presentation to T cells” (MIE UNIVERSITY, priority 2013, dated 2021)
# What was measured:
# [1] = system: F4/80+ cells (macrophages); test: In vitro uptake of FAM-labeled long chain peptide antigens by antigen-presenting cells (macrophages); format: cell-based; conditions: FIG. 8, complexed with CHP, 10 μg/mL, mouse spleen cells, 60 minutes, in comparison to G6 and P6
# From the text: Long chain peptide antigens MEN, all containing three types of mouse CD8+ T cell epitope sequences (MA p265 (Sequence No. 27), NY p81 (Sequence No. 29), and mERK2 9m (Sequence No. 28)), were synthesized. The interepitope sequences between the respective epitopes were respectively six consecutive tyrosines (Y6), six consecutive glycines (G6), or six consecutive prolines (P6) (Sequence Nos. 1-3). Each long chain peptide antigen, labeled with the fluorescent dye FAM, was complexed with CHP and administered in vitro to mouse dendritic cells and mouse macrophages. After 60 minutes, the fluorescence uptakes into the respective cells were measured by flow cytometry with the P5 fraction in the figure being deemed to correspond to the dendritic cells and the P6 fraction in the figure being deemed to correspond to the macrophages.
# In vitro uptake of the long chain peptide antigens by antigen-presenting cells was measured as follows. Each long chain peptide labeled with a fluorescent dye was complexed with CHP by the method described above. Spleen cells separated from a normal mouse were added at 1×10^6 cells/0.5 mL/well to a 24-well plate. […] The uptake of the fluorescence-labeled long chain peptide antigens by CD11c^+ cells (dendritic cells) and F4/80^+ cells (macrophages) were observed using flow cytometry.
# [2] = system: F4/80+ cells (macrophages); test: Uptake of FAM-labeled long chain peptide antigens in individual animals, regional lymph node macrophages; format: in vivo, BALB/c mice; conditions: FIG. 9, complexed with CHP, subcutaneous, 16 hours after administration
# Method: The same FAM-labeled long chain peptide antigens as those in FIG. 8 were complexed with CHP and administered subcutaneously to mice. After 16 hours, cells were collected from a regional lymph node of the administration site, and the fluorescence uptakes into dendritic cells and mouse macrophages were measured by flow cytometry with the P4 fraction in the figure being deemed to correspond to the dendritic cells and the P5 fraction in the figure being deemed to correspond to the macrophages.
# A test of uptake of long chain peptide antigens by antigen-presenting cells in individual animals was performed as follows. Each long chain peptide was fluorescence-labeled, complexed with a CHP nanogel, administered subcutaneously to BALB/c mice. 16 hours after administration, cells were collected from lymph nodes and after staining with the anti-CD11c antibody and the anti-F4/80 antibody, the uptake of the fluorescence-labeled long chain peptide antigens by CD11c^+ cells (dendritic cells) and F4/80^+ cells (macrophages) was analyzed by flow cytometry.
# [3] = system: NY p81 specific CD8+ T cells; test: Specific CD8+ T cell induction in mice, intracellular cytokine staining (NY p81 epitope); format: in vivo, BALB/c mice; conditions: FIG. 6; comparing one to six tyrosines
# From the text: A long chain peptide antigen ESO1 LP (native type) (Sequence No. 16) and a long chain peptide antigen ESO1 LP (Y6) (Sequence No. 17), both containing a mouse CD8+ T cell epitope sequence (NY p81 or NY p82) and a mouse CD4+ T cell epitope sequence (NY p91) that are derived from human NY-ESO-1 antigen, were synthesized. As the interepitope sequence between epitopes, the native amino acid sequence of NY-ESO-1 was retained in the ESO1 LP (native type) and the sequence of six consecutive tyrosines (Y6) was used in the ESO1 LP (Y6). Vaccines containing the respective long chain peptide antigens were administered to mice in the same manner as in FIG. 1 and the frequencies of CD8+ T cells and CD4+ T cells specific to the respective epitope sequences were measured by the intracellular cytokine staining method.
# (§1) Long chain peptide antigens MEN, all containing three types of mouse CD8+ T cell epitope sequences (MA p265 (Sequence No. 27), NY p81 (Sequence No. 29), and mERK2 9m (Sequence No. 28)), were synthesized. The interepitope sequences between the respective epitopes were one to six consecutive tyrosines (Sequence Nos. 1 and 9-12). Vaccines containing the respective long chain peptide antigens were administered to mice in the same manner as in FIG. 1 and the frequencies of CD8+ T cells specific to the respective epitope sequences were measured by the intracellular cytokine staining method.
# as §1, with “five” for “one”, “ten” for “six”, “13-15).” for “9-12).”, “method. […]” for “method.”
sequence,measurement,setting,value
"SNPARYEFLYYYYYYQYIHSANVLYYYYYYRGPESRLL (Long chain peptide antigen, containing three types of mouse CD8+ T cell epitope sequences (MA p265, NY p81, and mERK2 9m)) [MEN(Y6)]",fluorescence uptake into macrophages,[1],significantly higher
same,fluorescence uptake into macrophages of the regional lymph node,[2],clearly observed
same,"induction of specific CD8+ T cells, NY p81 (third epitope)",[3],highest
